Results on one compound are retold here after patent US6555558B2, “Oral dosage self-emulsifying formulations of pyranone protease inhibitors” (priority 2000, dated 2003).

In data set [1] the test system is isolates resistant to indinavir, ritonavir and nelfinavir; saquinavir resistance. The note with it: cited from earlier work.
Data set [2] deals with HIV-1 variants resistant to the peptidomimetic protease inhibitors. The note with it: cited from earlier work.
Data set [3] concerns clinical isolates with a wide range of resistance to currently available peptidomimetic protease inhibitors. The note with it: 105 viruses with more than tenfold resistance to three or four proteinase inhibitors, average 6.1 protease mutations; cited from earlier work.
For data set [4] the following is noted: free acid form; pH of from about 6 to about 7; cited from earlier work.
Data set [5] can be described thus: solubility in polyethylene glycols. The class given is physicochemical. The settings on record: polyethylene glycols within a defined average molecular weight range. As for the experimental part:
Microemulsion phase diagrams were constructed for systems containing various lipophilic phases, hydrophilic phases, and surfactants. After numerous studies it was determined that a number of pyranone protease inhibitors, including tipranavir, were soluble in polyethylene glycols within a defined average molecular weight range, and could be used to replace propylene glycol and ethanol found in conventional microemulsion formulations of such drugs.

The conditions of data set [6]: cited from earlier work.
Another data set relates to HIV. The note with it: antiviral cell culture; cited from earlier work.
Data set [7] concerns viral aspartate proteases of a variety of HIV type 1 laboratory strains and clinical isolates. The settings on record: including those resistant to zidovudine and delavirdine; cited from earlier work.
The next data set concerns the target T1, HIV protease (Human immunodeficiency virus type 1 group M subtype B, UniProt P04585).
T1 construct: one of the smallest enzymes yet characterized (consisting of only 99 amino acids)
The settings on record: in vitro enzymatic inhibition; cited from earlier work.

SMILES strings stand for the structures.

As for `CCC[C@@]1(CCc2ccccc2)CC(O)=C([C@H](CC)c2cccc(NS(=O)(=O)c3ccc(C(F)(F)F)cn3)c2)C(=O)O1` [tipranavir], the “antiviral activity against isolates resistant to indinavir, ritonavir and nelfinavir” value in [1] is on record as “retain sustained antiviral activity”. Besides, in data set [2], the “activity against HIV-1 variants resistant to peptidomimetic protease inhibitors” value is “highly active”. Moreover, the “share of resistant viruses susceptible” value in data set [3] is reported as “ninety”. Besides, the aqueous solubility entry in data set [4] is reported as “about 10 μg/ml”. Also, in data set [5], the “solubility in polyethylene glycols” value is “soluble”. In addition, the “Log P” value in [6] was “about 6.1”. Also, in the data set with HIV, the IC90 is roughly 100 nM. Further, the “potency against viral aspartate proteases” value in data set [7] is “excellent potency”. Besides, the inhibitory constant (Ki) at HIV protease was roughly 0.008 nM.

Broadly, the IC90 is the concentration at which the effect reaches the 90% level. One may read the Ki as the equilibrium dissociation constant of an inhibitor or competing ligand from its target.
